Test: Temperature cycling / physical stability of solvents, systems and formulations
Format: physicochemical
Description: Temperature Cycling of Selected Solvents and Solubility Systems was studied. Systems were prepared at ambient temperature, with mixed solvent in the weight ratios reported in brackets. Mitotane, 0.25 grams, was then added to 1 gram of each solvent or solvent mixture. Samples were placed in the refrigerator (5° C.±3° C.) and observations were recorded. The samples were then left at ambient temperature for 24 hours, and observations recorded. The samples were then placed in a 40° C. oven, and final observation was made after another 24 hours. These observations are recorded in the table below.
Based on these studies, several formulations were prepared (see Tables 10 and 11). Temperature cycling was tested to evaluate the physical stability of the three formulations F-2772-054 (33.3% drug w/w), F-2772-055 (20.0% drug w/w), and F-2772-057 (33.3% drug w/w) as well as formulations F-2772-054 and 057 at 28.5% drug w/w. […] Temperature cycling consisted of three stages for 24 hour periods; refrigeration (5° C.), 40° C. conventional oven, and room temperature. After each 24 hour cycle, solutions were evaluated for clarity.

With `Clc1ccc(C(c2ccccc2Cl)C(Cl)Cl)cc1` (centres unmarked) [mitotane, Mitotane] as the compound, how does the “Highest mitotane concentration trial found to be the most stable” value read?
Its value is 28.5 % weight/weight.

What about the “Highest most stable mitotane concentration expressed as drug loading” value (28.5/(100-28.5)) of the same compound?
Its value is 40 % drug loading.

From US9770509B2, “Self micro-emulsifying drug delivery system with increased bioavailability” (Pharmaceutics International, Inc., priority 2010, dated 2017)
